According to paper PMC10306101, “Substrate-derived Sortase A inhibitors: targeting an essential virulence factor of Gram-positive pathogenic bacteria” (Chemical Science, 2023):
“And” between values parts separate entries of the source, which are not always exact repeats. Equal values may be shown once. Read-outs that look alike come from different tables or passages of the source. Non-standard residues stand in square brackets, D forms with d. Residues, ends and D or L forms follow the SMILES beside them. *: point of attachment. Bz = O=C(c1ccccc1)*; Sar = CNCC(=O)O

What was measured:
SrtA [1] = biological target: T1, SrtA (Staphylococcus aureus, UniProt Q2FV99); experiment: biochemical; set-up: species or system S. aureus; conditions: for FRET inhibition: 200 nM SrtA, 200 μM inhibitor, HEPES buffer; for FRET inhibition / inhibition at 200 µM: mean ± SE, triplicate; for IC50: IC50, inhibitor 1 μM to 1500 μM, corrected for molar extinction coefficient; for inhibition at 200 µM: read-out: FRET inhibition, 200 nM SrtA, 200 μM inhibitor, HEPES buffer
T1 construct: His6 (N); made in house; host or cells: E. coli BL21, pET21b plasmid
T1 sequence (Q2FV99 60-206): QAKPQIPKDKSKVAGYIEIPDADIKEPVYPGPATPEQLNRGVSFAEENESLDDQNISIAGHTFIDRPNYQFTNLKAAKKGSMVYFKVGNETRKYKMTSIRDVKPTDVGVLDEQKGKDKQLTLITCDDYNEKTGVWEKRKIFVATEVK
Experimental: In order to screen the activity of SrtA inhibitors, a FRET-based functional assay was used which employs an internally quenched fluorescent (IQF) substrate, Abz-LPETGK(Dnp)-NH2 (Fig. S37a ^†).[5] […] 5-((C4-Nitrobenzyl)thio)-1,3,4-thiadiazol-2-amine was used as a reference inhibitor in the experiment.[42] […]
Fluorescence resonance energy transfer assay
For the FRET assay, the compound 5-((4-nitrobenzyl) thio)-1,3,4-thiadiazol-2-amine was used as a reference and prepared by dissolving 3 µL of the available stock (10 mM) in […] HEPES and 1% DMSO to afford a 300 µM stock concentration for the assay. This reference compound […]
FRET assay was performed with an internally quenched fluorogenic (IQF) substrate to determine the inhibitory activity of the synthesized peptidomimetics. The assay was performed in a 30 μl reaction mixture in HEPES buffer (50 mM HEPES, 150 mM NaCl, 5 mM CaCl2, 0.05% Tween20, pH 7.5). SrtA solution (200 nM) was preincubated with compounds (200 μM) for 15 min at 22 °C followed by the addition of the substrate solution (25 μM Abz-LPETGK(Dnp)-NH2, 5 mM H-Gly3-OH, final assay concentration) in the same buffer. The cleavage of the Abz/Dnp-substrate was quantified by an increase in the fluorescence signal.
The fluorescence signal was monitored each minute for 45 minutes and plotted to obtain the fluorescence rate as a line curve. The assay was performed in 384 well Corning NBS microplates (flat bottom, no lid, low flange, non-binding surface, non-sterile, white polystyrene).
Fluorescence intensity was measured at emission and excitation wavelengths of […] using a Spectramax iD5 plate reader (Molecular Devices, San Jose, CA, USA). Triplicate measurements were taken for each data point to ensure the reproducibility of the results. The average value of the fluorescence signal readouts was plotted against time over […] for each compound to produce a line curve using Origin. The reference compound was used in the experiment to act as a positive control. The slope of each compound curve (Sx) and the slope of the substrate (S0) were extracted using the linear fit function in Microsoft Origin 2019. The percent inhibition was calculated according to the following equation: inhibitory rate = (1 – Sx/S 0) × 100%. For IC50 values, Sx values at different concentrations were plotted against log transformed concentration values and fitted with a sigmodial fit using the DoseResp function using Origin. The bottom asymptote of the dose-response curve was fixed at 0. The data were reported as mean ± SE%. […]

S. aureus = experiment: Sytox Green fluorescence measurement of S. aureus incubated with inhibitors; assay type: cell-based; conditions: for Fluorescence value (Sytox Green, 533 nm): 24 hours, control 294.0 ± 0.1
Experimental: To achieve this, S. aureus was again incubated with our peptidomimetic inhibitors, specifically, 18, 22, 23 and 24 at 8, 32 and 128 μg mL^−1 and harvested after 24 hours to ensure the bacteria reach their growth plateau. Peptide 24 was included to confirm the influence of the N-terminal benzyl group. The bacterial cells were permeabilized and their […] were labelled using Sytox Green and subsequently their fluorescence was measured quantitatively. […] Bacteria incubated with 32 and 128 μg mL^−1 of 18 as well as 128 μg mL^−1 of 22 were also imaged using fluorescence microscopy (Fig. 4). In the control sample, planktonic bacteria could be abundantly observed (Fig. 4a). While it was hard to distinguish the microscopy images for the less strong inhibition (Fig. 4b and c), it became evident from the sample with 128 μg mL^−1 of 18 that visually bacterial growth was affected as well (Fig. 4d) where the bacteria were much more sparsely distributed in the sample. […]
For the fluorescence experiments S. aureus was cultured overnight in sterile TSB medium and diluted 1:250 by adding 2.5 μL bacterial culture into TSB medium in sterilized 1.5 mL Eppendorf tubes to a final volume of 500 μL. Subsequently, peptides were added to the bacteria from filter sterilized stocks in MQ-H2O to give 8, 32 and 128 μg/ml final concentrations. Then, bacteria were incubated at 37 °C for 24 hours and centrifuged for 3 minutes at 3000 rpm in an Eppendorf Microstar 30r centrifuge. The supernatant was discarded and the cells were washed once with sterilized PBS and centrifuged. 100 μL PBS-T (PBS + 0.1% Triton-X) was added to the cells for 15 minutes to induce cell membrane permeabilization. After removal of the PBS-T by centrifugation, 100 μL of 5 μM Sytox Green (Invitrogen, Waltham, MA, USA) solution in PBS […]
was added and the cells were stained for 30 minutes, centrifuged and washed with PBS twice.
For the fluorescence measurements, the cells were resuspended with 100 μL of PBS and added in a sterilized, white plastic polystyrene 96-well plate and their fluorescence was measured by exciting the samples at 488nm and measuring the fluorescence intensity at 533 nm in a microplate reader. All individual samples were carried out in duplicate. For the fluorescence microscopy experiments, the cells were treated in the same, but resuspended in 10 μL of PBS and 5 μL of bacterial suspension was spotted on a glass target plate dipped in a melted solution of 1.2% agarose in Tris-HCl (50 mM) to ensure fixation of the sample. The sledes were covered by a cover glass and observed on an Axio Imager Z2m fluorescence microscope (Zeiss, Jena, Germany) at 100 times magnification at the emission wavelength of […]
Biofilm inhibition assays
For the biofilm inhibition experiments the S. aureus strain CCUG10778 was cultured overnight in sterile BHI broth. A sterilized, clear polystyrene 96-well plate was prepared by coating with plasma by addition of 20% of final assay volume rabbit plasma to the wells and incubating overnight at 4 °C. Then, the cultured strain was diluted 1:100 by adding 2 μL into BHI medium on the plasma coated plate to a total volume of 200 μL. Subsequently, peptides were added to the bacteria from filter sterilized stocks in MQ-H2O to give 8, 32 and 128 μg/ml final concentrations and incubated for 12 hours at 37 °C without shaking. The supernatant was removed and the wells were rinsed with PBS and 100 μL of 1% crystal violet solution (diluted in PBS) was added and the biofilms were stained for 10 minutes. The wells were washed with PBS twice and 200 μL of a 95% ethanol solution in water was added to solubilize the cells for 30 minutes. 100 μL was transferred into a new 96-well plate and the absorbance measured at 595 nm using a Varioskan Lux microplate reader. All individual samples were carried out in […]
All computational studies and analysis steps were performed employing the YASARA molecular modeling program.6, 7
Molecular graphics were created with YASARA (www.yasara.org) and POVRay […]

[2] = tested on: S. aureus strain CCUG10778 biofilm; conditions: BHI, rabbit plasma coated plate
[3] = tested on: S. aureus strain CCUG10778; experiment: Growth profiling of S. aureus (absorbance at 600 nm); assay type: cell-based; conditions: for effect on bacterial growth (absorbance plateau, OD600): 2 to 128 μg mL^−1, TSB medium, up to 48 hours
Experimental: To assess whether our most promising compounds have a possibility of being potential antivirulent compounds, they were tested with pathogenic S. aureus bacteria to assess the peptidomimetic inhibitors for their ability to inhibit bacterial growth. Firstly, our compounds were incubated with S. aureus bacteria in a 96-well plate in Tryptic Soy Broth (TSB) medium, while we also included the reference compound used in the single-point in vitro inhibition studies. So far, the covalent binding thiadiazol reference compound was not tested in this respect, but was one of the most promising compounds identified in an earlier screening campaign.[42] The inhibitors were added at various concentrations, ranging from 2 μg mL^−1 to 128 μg mL^−1, and the absorbance at 600 nm was measured as an indication of their optical density (OD600) and by that the bacteria's ability to propagate in liquid media. In the negative control experiments, the bacteria consistently reached an OD600 of 0.6 between 6 and 12 hours (Fig. 3). […]
For the growth profiling experiments the S. aureus strain CCUG10778 was cultured overnight in sterile TSB medium and diluted 1:100 by adding 1 μL into TSB medium in a sterilized, clear polystyrene 96-well plate to a final assay volume of 100 μL. Subsequently, peptides were added to the bacteria from filter sterilized stocks in MQ-H2O to give 2, 8, 32 and 128 μg/ml final concentrations. Then, bacteria were incubated at 37 °C for 3, 6, 12, 24, 36 or 48 hours and their absorbance was measured at 600 nm using a Varioskan Lux microplate reader (Thermo Fisher Scientific, Waltham, MA, USA). All individual samples were carried out in triplicate. […]
Then, bacteria […]
were incubated at 37 °C for 24 hours and centrifuged for 3 minutes at 3000 rpm in an Eppendorf Microstar 30r centrifuge. The supernatant was discarded and the cells were washed once with sterilized PBS and centrifuged. 100 μL PBS-T (PBS + 0.1% Triton-X) was added to the cells for 15 minutes to induce cell membrane permeabilization. After removal of the PBS-T by centrifugation, 100 μL of 5 μM Sytox Green (Invitrogen, Waltham, MA, USA) solution in PBS

SrtA [4] = conditions: cited from earlier work
SrtA [5] = biological target: T1, SrtA; assay type: biochemical, S. aureus; conditions: 200 nM SrtA, inhibitor at 10 μM (detector oversaturation at 200 μM)

LPET-Sar [Compound 6]
FRET inhibition (SrtA [1]): 19.4 ± 2.6%

H-LPRDF-NH2 [Compound 24, LPRDF]
IC50 (SrtA [1]): 136.9 ± 1.2 µM | inhibition at 200 µM (SrtA [1]): 42.2 ± 6% | Fluorescence value (Sytox Green, 533 nm) (S. aureus; 8 μg/ml): 315.7 ± 0.6 | Fluorescence value (Sytox Green, 533 nm) (S. aureus; 32 μg/ml): 299.9 ± 1.2 | Fluorescence value (Sytox Green, 533 nm) (S. aureus; 128 μg/ml): 283.0 ± 0.9

CC(C)C[C@H](N)C(=O)N1CCC[C@H]1C(=O)N[C@@H](CCCNC(=N)N)C(=O)N[C@@H](CC(=O)O)C(=O)N(C)CC(N)=O [Compound 5, LPRD-Sar] (H-LPRD[Sar]-NH2)
FRET inhibition (SrtA [1]): 68.5 ± 2.6% | IC50 (SrtA [1]): 18.9 ± 1.2 µM | inhibition at 200 µM (SrtA [1]): 69%

BzLPETP [Compound 19]
FRET inhibition (SrtA [1]): 15.1 ± 3.8%

AcLPRDA [Compound 10]
FRET inhibition (SrtA [1]): 20.7 ± 2.9%

CC(C)C[C@H](NC(=O)c1ccccc1)C(=O)N1CCC[C@H]1C(=O)N[C@@H](CCCNC(=N)N)C(=O)N[C@@H](CC(=O)O)C(=O)N[C@@H](Cc1ccccc1)C(N)=O [Compound 23, BzLPRDF] (Bz-LPRDF-NH2)
IC50 (SrtA [1]): 114 ± 1.3 µM | inhibition at 200 µM (SrtA [1]): 113 ± 26%

KSFLPATGGAE [Compound 8]
FRET inhibition (SrtA [1]): 18% and 18.1 ± 2.9%

CbzLPRDA [Compound 14]
FRET inhibition (SrtA [1]): 17.0 ± 2.8%

H2N-LPRDA-OH [Compound 1]
FRET inhibition (SrtA [1]): 29.2 ± 2.6%

CC(C)C[C@H](NC(=O)c1ccccc1)C(=O)N1CCC[C@H]1C(=O)N[C@@H](CCCNC(=N)N)C(=O)N[C@@H](CC(=O)O)C(=O)N(C)CC(N)=O [Compound 18, BzLPRDSar] (Bz-LPRD[Sar]-NH2)
IC50 (SrtA [1]): 57.4 ± 1.1 µM | inhibition at 200 µM (SrtA [1]): 108 ± 6.9% | biofilm inhibition ([2]; 8 μg mL^−1, 12 hours): 52% | biofilm inhibition ([2]; 32 μg mL^−1, 12 hours): 73% | biofilm inhibition ([2]; 128 μg mL^−1, 12 hours): 95%

LPRDA-Ado [Compound 2]
FRET inhibition (SrtA [1]): 30.4 ± 2.8%

Nc1nnc(SCc2ccc([N+](=O)[O-])cc2)s1 [Reference (0), 5-((4-nitrobenzyl)thio)-1,3,4-thiadiazol-2-amine, reference compound]
FRET inhibition (SrtA [1]): 77.1 ± 4.1% | effect on bacterial growth (absorbance plateau, OD600) [3]: did not show any activity | IC50 (SrtA [4]; reported covalent inhibitor, ref 42 (supplement ref 4)): 26 ± 0.7 µM | IC50 (SrtA [4]; reported covalent inhibitor, ref 42 (supplement ref 4), listed as 5-((C4-Nitrobenzyl)thio)-1,3,4-thiadiazol-2-amine): ~26 µM

ELPRDA [Compound 27]
FRET inhibition (SrtA [1]): 26% and 26.2 ± 2.0%

Ado-LPRDA [Compound 3]
FRET inhibition (SrtA [1]): 22.6 ± 2.8%

2NapLPRDA [Compound 13]
effect on bacterial growth (absorbance plateau, OD600) [3]: did not have any effect | FRET inhibition (SrtA [5]): 47% and 47.4 ± 1.1 (at 10 μM) %

GTEPL [Compound 9]
FRET inhibition (SrtA [1]): 38% and 37.7 ± 3.1%

H-LPETP-NH2 [Compound 7, LPETP]
IC50 (SrtA [1]): 136.3 ± 1.2 µM

PEG2000-LPRDA-NH2
IC50 (SrtA [4]; reported SrtA inhibitor): 10.6 µM

LPRDP [Compound 20]
FRET inhibition (SrtA [1]): 32% and 32.3 ± 8.7%

BzLPRDA [Compound 11]
FRET inhibition (SrtA [1]): 37% and 37.2 ± 3.1%

H-FLPRDA-NH2 [Compound 22, FLPRDA]
FRET inhibition (SrtA [1]): 70.1 ± 5.7% | IC50 (SrtA [1]): 185.3 ± 1.5 µM | inhibition at 200 µM (SrtA [1]): 70% | decrease in absorbance compared to the control ([3]; 128 μg mL^−1, 48 hours, OD600): 22% | effect on bacterial growth (absorbance plateau, OD600) [3]: clear effect on the plateau of the absorbance | Fluorescence value (Sytox Green, 533 nm) (S. aureus; 8 μg/ml): 302.3 ± 0.5 | Fluorescence value (Sytox Green, 533 nm) (S. aureus; 32 μg/ml): 297.4 ± 0.3 | decrease in fluorescence signal (in words) (S. aureus; 128 μg mL^−1, 24 hours): minor effect | Fluorescence value (Sytox Green, 533 nm) (S. aureus; 128 μg/ml): 275.2 ± 1.1

ChLPRDA [Compound 12]
FRET inhibition (SrtA [1]): 21.6 ± 4.2%

BzLPRDP [Compound 21]
FRET inhibition (SrtA [1]): 31.0 ± 7.6%
